Test results reported in patent EP0084730A1, “Esters of penicillin derivatives with beta-lactamase inhibitors, their preparation and their use” (BEECHAM GROUP PLC, priority 1982, dated 1983).

Key:
[1] = Blood levels of the clavulanate after oral dosing in mice, determined by β-lactamase inhibition assay; format: in vivo; conditions: mouse
Text: These compounds were adminstered in 10% dimethylformamide/90% olive oil. […]
(§1) An antibacterial assay was used to determine levels of benzyl penicillin in blood samples. A P-lactamase inhibition assay was employed to determine levels of the clavulanate in the samples.

[2] = Blood levels of benzyl penicillin after oral dosing in mice, determined by antibacterial assay; conditions: mouse, in vivo, 60 mg/kg
Method: […] These compounds were adminstered in 10% dimethylformamide/90% olive oil. The dose was equivalent to approximately 62 mg/kg of benzyl penicillin and 38 mg/kg of the clavulanate.
as §1

SMILES: O=C(O)[C@H]1/C(=C/CO)O[C@@H]2CC(=O)N21 [clavulanic acid]
- concentration at 0.25 h ([1]; blood, mice, clavulanic acid alone at 20 mg/kg, 15' after administration, mean results from several experiments, read-out: Blood levels of clavulanic acid): 5900 ng/mL
- concentration at 0.5 h ([1]; blood, mice, clavulanic acid alone at 20 mg/kg, 30' after administration, mean results from several experiments, read-out: Blood levels of clavulanic acid): 2300 ng/mL
- concentration at 0.75 h ([1]; blood, mice, clavulanic acid alone at 20 mg/kg, 45' after administration, mean results from several experiments): 1040 ng/mL
- concentration at 1 h ([1]; blood, mice, clavulanic acid alone at 20 mg/kg, 60' after administration, mean results from several experiments, read-out: Blood levels of clavulanic acid): 530 ng/mL
- concentration at 1.5 h ([1]; blood, mice, clavulanic acid alone at 20 mg/kg, 90' after administration, mean results from several experiments): 340 ng/mL
- concentration at 2 h ([1]; blood, mice, clavulanic acid alone at 20 mg/kg, 120' after administration, mean results from several experiments, read-out: Blood levels of clavulanic acid): ≤ 300 ng/mL

SMILES: CC1(C)S[C@@H]2[C@H](NC(=O)Cc3ccccc3)C(=O)N2[C@H]1C(=O)O [benzyl penicillin]
- concentration at 0.25 h [2]: 1390 ng/mL
- concentration at 0.5 h [2]: 1050 ng/mL
- concentration at 0.75 h [2]: 1250 ng/mL
- concentration at 1 h [2]: 620 ng/mL
- concentration at 1.5 h [2]: 550 ng/mL
- concentration at 2 h [2]: 320 ng/mL
- Blood levels of benzyl penicillin ([2]; 0.25 h): 1390 ng/mL
- Blood levels of benzyl penicillin ([2]; 0.5 h): 1050 ng/mL
- Blood levels of benzyl penicillin ([2]; 0.75 h): 1250 ng/mL
- Blood levels of benzyl penicillin ([2]; 1 h): 620 ng/mL
- Blood levels of benzyl penicillin ([2]; 1.5 h): 550 ng/mL
- Blood levels of benzyl penicillin ([2]; 2 h): 320 ng/mL

SMILES: COC/C=C1\O[C@@H]2CC(=O)N2[C@H]1C(=O)O [Clavulanic acid methyl ether]
- concentration at 0.25 h ([1]; in vivo, 20 mg/kg): 7500 ng/mL
- concentration at 0.5 h ([1]; in vivo, 20 mg/kg): 3850 ng/mL
- concentration at 1 h ([1]; in vivo, 20 mg/kg): 1500 ng/mL
- concentration at 2 h ([1]; in vivo, 20 mg/kg): 200 ng/mL
- Blood levels of clavulanic acid methyl ether ([1]; in vivo, 20 mg/kg, 1.5 h): 450 ng/mL
